For experiment [1], the target named is T1, Nuclear receptor subfamily 0 group B member 1 (Homo sapiens, UniProt P51843).
T1 sequence (P51843 whole entry): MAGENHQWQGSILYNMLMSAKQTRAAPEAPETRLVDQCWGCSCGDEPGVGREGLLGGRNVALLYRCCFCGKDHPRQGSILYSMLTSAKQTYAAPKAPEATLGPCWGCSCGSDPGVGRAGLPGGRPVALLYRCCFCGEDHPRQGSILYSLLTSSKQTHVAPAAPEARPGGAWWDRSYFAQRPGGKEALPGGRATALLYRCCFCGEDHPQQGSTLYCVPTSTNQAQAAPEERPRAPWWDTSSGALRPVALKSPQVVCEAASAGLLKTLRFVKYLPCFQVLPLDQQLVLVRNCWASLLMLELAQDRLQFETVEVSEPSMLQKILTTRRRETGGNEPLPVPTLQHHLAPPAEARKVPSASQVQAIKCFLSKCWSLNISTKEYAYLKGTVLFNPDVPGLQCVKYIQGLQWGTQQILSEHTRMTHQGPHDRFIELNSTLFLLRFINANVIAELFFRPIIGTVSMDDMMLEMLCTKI
Kind of experiment: Luminescence-based cell-based high throughput dose response assay for inhibitors of the orphan nuclear receptor subfamily 0, group B, member 1 (DAX1; NR0B1). [Related pubchem assays (depositor defined):AID504766, AID504790]. It counts as functional.

The subject of the next experiment is HEK293. Kind of experiment: cells. Conditions: Homo sapiens. Format: functional, cell-based.
Experiment [2] addresses T2, CAAX prenyl protease 2 (Homo sapiens, UniProt Q9Y256).
T2 sequence (Q9Y256 whole entry): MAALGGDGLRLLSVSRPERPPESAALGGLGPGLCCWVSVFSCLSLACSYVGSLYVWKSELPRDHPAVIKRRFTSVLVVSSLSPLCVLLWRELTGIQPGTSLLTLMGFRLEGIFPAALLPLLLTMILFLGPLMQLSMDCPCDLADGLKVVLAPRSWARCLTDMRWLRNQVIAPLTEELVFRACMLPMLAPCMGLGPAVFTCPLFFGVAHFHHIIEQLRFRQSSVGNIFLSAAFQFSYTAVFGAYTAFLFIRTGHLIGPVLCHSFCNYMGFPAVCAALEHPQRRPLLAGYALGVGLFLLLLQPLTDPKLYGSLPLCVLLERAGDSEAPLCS
Description: inhibition of Ras-converting CAAX protease Rce1 – biochemical, yeast membranes, quenched-peptide fluorescence, cherry-pick, dose response (AID 588849).

Experiment [3] has as its target T3, CAAX prenyl protease 2 (Saccharomyces cerevisiae S288c, UniProt Q03530).
T3 sequence (Q03530 whole entry): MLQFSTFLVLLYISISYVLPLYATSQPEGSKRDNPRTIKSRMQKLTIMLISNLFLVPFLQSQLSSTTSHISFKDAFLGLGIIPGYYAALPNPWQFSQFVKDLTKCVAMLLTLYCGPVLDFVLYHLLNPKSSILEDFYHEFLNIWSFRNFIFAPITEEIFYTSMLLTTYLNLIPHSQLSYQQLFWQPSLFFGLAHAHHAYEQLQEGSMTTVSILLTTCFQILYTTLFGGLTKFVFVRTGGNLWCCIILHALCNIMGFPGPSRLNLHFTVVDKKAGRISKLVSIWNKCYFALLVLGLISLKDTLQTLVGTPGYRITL
Format: biochemical.

Another experiment concerns the target Trypsin (Sus scrofa, UniProt P00761). Description: trypsin protease activity blockade – biochemical, quenched peptide fluorescence, cherry-pick, selectivity assay for Rce1 protease inhibitor project, dose response (AID 488789).
In a further experiment the test system is Jurkat. Description: blockers of NF-kB activation in T cells – Jurkat, luciferase reporter, luminescence, B- and T-cell, dose response (AID 489004).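 Also: NF-kB luciferase reporter Jurkat cells stimulated with PMA plus ionomycin.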 Conditions: Homo sapiens. It counts as functional, cell-based. Background: In a reporter assay the amount or activity of a reporter protein is the signal.
Another experiment concerns the target Troponin, cardiac muscle (Homo sapiens, UniProt P19429+P45379+P63316). Description: Fluorescence-based biochemical high throughput dose response assay for activators of the calcium sensitivity of cardiac Regulated Thin Filaments (RTF). [Related pubchem assays (depositor defined):AID493008, AID493018, AID504382, AID504383]. Format: protein-complex assay.
Experiment [4] has as its target T4, Rac GTPase-activating protein 1 (Homo sapiens, UniProt Q9H0H5).
T4 sequence (Q9H0H5 whole entry): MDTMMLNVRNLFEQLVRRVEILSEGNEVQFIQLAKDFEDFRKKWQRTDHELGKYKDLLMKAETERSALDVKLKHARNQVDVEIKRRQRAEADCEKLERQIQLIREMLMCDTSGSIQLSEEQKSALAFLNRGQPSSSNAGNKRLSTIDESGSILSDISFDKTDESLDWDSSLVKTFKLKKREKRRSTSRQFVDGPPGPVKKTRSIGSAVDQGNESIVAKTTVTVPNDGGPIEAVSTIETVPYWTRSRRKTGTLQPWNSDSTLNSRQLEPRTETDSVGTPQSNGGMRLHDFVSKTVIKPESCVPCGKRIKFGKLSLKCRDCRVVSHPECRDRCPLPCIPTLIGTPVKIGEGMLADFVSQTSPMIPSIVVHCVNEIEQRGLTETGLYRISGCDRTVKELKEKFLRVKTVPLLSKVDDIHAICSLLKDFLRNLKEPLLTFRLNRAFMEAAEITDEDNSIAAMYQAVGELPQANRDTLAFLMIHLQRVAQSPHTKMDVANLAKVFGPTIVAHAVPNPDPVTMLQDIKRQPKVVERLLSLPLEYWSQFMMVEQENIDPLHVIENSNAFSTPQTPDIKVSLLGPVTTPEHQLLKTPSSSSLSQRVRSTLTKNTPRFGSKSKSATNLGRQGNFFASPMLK
Kind of experiment: blockers of MgcRacGAP-driven Rac1 GTP hydrolysis – biochemical, ADP Hunter fluorescence, primary and confirmatory, confirmation (AID 624330). It counts as functional.

A short description of experiment [5]: Luminescence Cell-Based Dose Response HTS to Identify Inhibitors of 5'UTR Stem-Loop Driven Prion Protein mRNA Translation in H4 Neuroglioblastoma Cells. [Related pubchem assays: 1827 (Project Summary), 1813 (Primary HTS)]. It counts as functional.
Experiment [6] in a line: microbe, parasite or virus in culture. It counts as functional. Conditions: Mycobacterium tuberculosis.
Experiment [7] deals with T5, Calpain-2 catalytic subunit (Sus scrofa, UniProt P43367).
T5 sequence (P43367 whole entry): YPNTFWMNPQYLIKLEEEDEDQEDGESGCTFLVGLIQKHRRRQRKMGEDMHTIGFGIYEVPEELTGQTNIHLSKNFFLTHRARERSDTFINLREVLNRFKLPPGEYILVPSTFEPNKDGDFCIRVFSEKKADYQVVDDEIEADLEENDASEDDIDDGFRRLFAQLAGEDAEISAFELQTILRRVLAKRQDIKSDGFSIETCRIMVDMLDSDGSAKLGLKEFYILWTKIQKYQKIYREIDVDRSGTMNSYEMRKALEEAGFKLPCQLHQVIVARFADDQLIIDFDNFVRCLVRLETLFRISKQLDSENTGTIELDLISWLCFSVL
Kind of experiment: m-calpain protease blockers, concentration series – biochemical, fluorogenic peptide substrate, dose response (AID 1420). It counts as functional.

Experiment [8] in a line: viability loss in HeLa cells – cytotoxicity control for MgcRacGAP inhibitor project, dose response (AID 624300). Format: functional.
The nature of experiment [9]: HEK-293T viability loss, compound-treated – cell-based, uHTS hits, cytotoxicity control for B/T-cell NF-kB inhibitor project, dose response (AID 489019).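 Also: IC50 reflects cytotoxicity as loss of cell viability.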 Format: functional.
The target in experiment [10] is T6, COUP transcription factor 2 (Homo sapiens, UniProt P24468).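 Also: HEK293 cells transiently cotransfected with COUP-TFII expression vector and reporter; luciferase reporter luminescence driven by COUP-TFII from the pX2-168 reporter plasmid.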
T6 sequence (P24468 whole entry): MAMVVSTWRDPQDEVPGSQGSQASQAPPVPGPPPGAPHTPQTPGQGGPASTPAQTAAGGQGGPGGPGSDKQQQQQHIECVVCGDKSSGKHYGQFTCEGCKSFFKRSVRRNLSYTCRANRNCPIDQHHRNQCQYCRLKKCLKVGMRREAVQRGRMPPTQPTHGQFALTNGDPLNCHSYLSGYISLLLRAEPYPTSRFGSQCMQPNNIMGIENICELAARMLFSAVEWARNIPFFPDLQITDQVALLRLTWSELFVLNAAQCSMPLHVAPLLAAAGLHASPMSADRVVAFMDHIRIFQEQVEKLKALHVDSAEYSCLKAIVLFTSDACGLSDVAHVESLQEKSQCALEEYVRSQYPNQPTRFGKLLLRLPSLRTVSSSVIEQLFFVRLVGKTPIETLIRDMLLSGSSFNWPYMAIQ
Description: Luminescence-based cell-based high throughput dose response assay to identify inhibitors of COUP-TFII (NR2F2). It counts as functional.

The target of experiment [11] is Heat shock protein HSP 90-alpha (Homo sapiens, UniProt P07900). Format: functional, organism-based.
The nature of experiment [12]: cells. It counts as functional, cell-based.
Experiment [13] can be described thus: cells. It counts as functional, cell-based. This is another data set of the same source.

Experimental findings from ChEMBL document CHEMBL1201862, “PubChem BioAssay data set” (2004) are described below.

The term IC50 denotes the midpoint of a concentration-inhibition curve. One may read the AC50 as the concentration at which the activity in the assay is half-maximal. Broadly, the EC50 is the concentration at which the effect is half-maximal.

Structures are written as SMILES. Activity calls are given as the source filed them. Some results are limits rather than exact numbers.

Chain of Trypsin (P00761 whole entry): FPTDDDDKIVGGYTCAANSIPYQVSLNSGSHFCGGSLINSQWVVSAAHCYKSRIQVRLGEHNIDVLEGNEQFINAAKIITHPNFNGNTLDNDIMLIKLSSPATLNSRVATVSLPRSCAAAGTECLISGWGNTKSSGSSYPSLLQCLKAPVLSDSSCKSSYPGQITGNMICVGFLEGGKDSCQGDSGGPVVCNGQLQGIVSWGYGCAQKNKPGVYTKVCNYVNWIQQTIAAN

With `COc1ccc(C2SCC(C(=O)O)N2C(C)=O)cc1OC` (configuration not stated), the IC50 (in experiment [1]; in the experiment on HEK293) was > 67.5 µM (inactive) each time.

Turning to `Cc1cc(NC(=O)CSc2nc(N)c(NC(=O)c3ccco3)c(O)n2)no1`, the IC50 (in experiment [1]; with HEK293) was > 67.6 µM (inactive) each time.

Regarding `CC(=O)NN1C(=O)c2ccccc2NC1c1ccccc1` (configuration not stated), at CAAX prenyl protease 2 [2], the AC50 was > 100 µM (inactive).

On to `Nc1c(C(=O)NCCN2CCOCC2)c2nc3ccccc3nc2n1-c1cccc(F)c1`, for which the AC50 was 15 µM (active) on CAAX prenyl protease 2 [3], 12.4 µM (active) at Trypsin and 5.43 µM (active) at CAAX prenyl protease 2 [2].

On to `CCN1/C(=C/c2ccc3cc(C)ccc3[n+]2CC)Sc2ccccc21`, for which the IC50 in the experiment on Jurkat is 2.6 µM (active); in experiment [4], 59.5 µM (active); in experiment [7], 16.4 µM (not active); in [9], > 80 µM (inactive); in experiment [10], 1.55 µM (active). The EC50 is 10.4 µM (inactive) at Troponin, cardiac muscle; > 120 µM (not active) in [5]; > 350 µM (not active) in the experiment “cells [12]”; > 350 µM (not active) in “cells [13]”. For the same compound, the CC50 in [6] is 1.92 µM (active); in [8] it was 12.5 µM (active). Also, the half-maximal activity concentration (AC50) in [11] was 7.73 µM (active).

In the case of `Cc1ccc(CN2CCN(/N=C/c3ccccc3)CC2)cc1`, the IC50 (in experiment [1]; in the experiment on HEK293) was > 67.6 µM (inactive) throughout.
